Patent US11072632B2, “Inhibitors of 17β-HSD1, 17β-HSD3 and 17β-HSD10” (UNIVERSITÉ LAVAL, priority 2011, dated 2021)

Key:
[1] = biological target: T1, 17β-HSD3 (Homo sapiens, UniProt P37058); test: Inhibition of 17β-HSD3 in intact HEK-293 cells; type: cell-based; conditions: for Intact cells (%), tested at 1 μM: Table 3, footnote b; for inhibition at 0.1 µM: HEK293, 1 h, read-out: Intact cells (%) (0.1 μM)
T1 construct: expressed in transfected cells; host or cells: HEK-293 (homogenate)
T1 sequence (P37058 1-310): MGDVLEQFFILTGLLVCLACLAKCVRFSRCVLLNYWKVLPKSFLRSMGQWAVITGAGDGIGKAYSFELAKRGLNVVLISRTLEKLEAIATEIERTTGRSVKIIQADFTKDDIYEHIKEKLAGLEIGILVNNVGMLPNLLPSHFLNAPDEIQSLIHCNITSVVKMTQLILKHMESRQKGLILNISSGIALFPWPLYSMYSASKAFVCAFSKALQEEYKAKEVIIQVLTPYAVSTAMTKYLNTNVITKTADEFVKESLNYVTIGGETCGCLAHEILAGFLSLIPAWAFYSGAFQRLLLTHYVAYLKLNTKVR

[2] = biological target: T2, 17β-HSD10 (Homo sapiens, UniProt Q99714); test: Inhibition of 17β-HSD10 in stably transfected HEK-293 whole cells (E2 into E1); type: cell-based; conditions: [14C]-E2 (1 μM) into [14C]-E1, intact HEK-293 cells, 1 μM; for inhibition at 1 µM: HEK293, read-out: Inhibition (%) at 1 μM
T2 construct: expressed in transfected cells
T2 sequence (Q99714 1-261): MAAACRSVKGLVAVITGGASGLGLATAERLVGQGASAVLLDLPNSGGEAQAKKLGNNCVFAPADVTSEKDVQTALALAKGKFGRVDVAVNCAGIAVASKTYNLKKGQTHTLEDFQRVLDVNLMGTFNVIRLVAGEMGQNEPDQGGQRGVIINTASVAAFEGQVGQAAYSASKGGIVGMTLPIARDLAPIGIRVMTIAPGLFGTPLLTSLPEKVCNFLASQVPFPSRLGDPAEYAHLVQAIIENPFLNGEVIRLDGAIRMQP

[3] = biological target: T1, 17β-HSD3; test: Inhibition of 17β-HSD3 in homogenated HEK-293 cells; type: biochemical; conditions: Table 3; for inhibition at 0.01 µM: read-out: Homo (%) (0.01 μM); for inhibition at 0.1 µM: read-out: Homo (%) (0.1 μM)

SMILES	Intact cells (%), tested at 1 μM [1]	Inhibition (%) at 1 μM [2] [%]	Homo (%) (0.01 μM) [3]	Homo (%) (0.1 μM) [3]	inhibition at 0.1 µM ([1]; Table 3, 0.1 μM) [%]	inhibition at 1 µM [2] [%]	inhibition at 0.01 µM [3] [%]	inhibition at 0.1 µM [3] [%]	Intact cells (%) (0.1 μM) ([1]; Table 3, 0.1 μM)
CC1CN(C[C@@]2(O)CC[C@@]3(C)[C@@H](CC[C@@H]4[C@@H]3CC[C@]3(C)C(=O)CC[C@@H]43)C2)C(C)CN1Cc1cccc(SC(F)(F)F)c1 (stereo partly drawn) [Compound 11d, (3α,5α)-3-{[(2ξ,5ξ)-2,5-dimethyl-4-{3-[(trifluoromethyl)sulfanyl]benzyl}piperazin-1-yl]methyl}-3-hydroxyandrostan-17-one]	N/A (58)^b %	27	18	88					
CC1CN(C[C@@]2(O)CC[C@@]3(C)[C@@H](CC[C@@H]4[C@@H]3CC[C@]3(C)C(=O)CC[C@@H]43)C2)C(C)CN1Cc1cccc(Cl)c1 (stereo partly drawn) [Compound 11e, (3α,5α)-3-{[(2ξ,5ξ)-4-(3-chlorobenzyl)-2,5-dimethylpiperazin-1-yl]methyl}-3-hydroxyandrostan-17-one]	N/A (55)^b %	25	26	84					
COc1cccc(CN2CC(C)N(C[C@@]3(O)CC[C@@]4(C)[C@@H](CC[C@@H]5[C@@H]4CC[C@]4(C)C(=O)CC[C@@H]54)C3)CC2C)c1 (stereo partly drawn) [Compound 11f, (3α,5α)-3-hydroxy-3-{[(2ξ,5ξ)-4-(3-methoxybenzyl)-2,5-dimethylpiperazin-1-yl]methyl}androstan-17-one]					50	21	19	87	
CC1CN(CC2(O)CCC3(C)C(CCC4C5CCC(=O)C5(C)CCC43)C2)C(C)CN1Cc1cccnc1 (stereo not drawn) [Compound 11g, (3α,5α)-3-{[(2ξ,5ξ)-2,5-dimethyl-4-(pyridin-3-ylmethyl)piperazin-1-yl]methyl}-3-hydroxyandrostan-17-one]	N/A (58)^b %	21	17	47					
C[C@]12CC[C@](O)(CN3CCN(C(=O)c4ccccc4C(F)(F)F)CC3)C[C@@H]1CC[C@@H]1[C@@H]2CC[C@]2(C)C(=O)CC[C@@H]12 [Compound 12c, (3α,5α)-3-hydroxy-3-[(4-{[2-(trifluoromethyl)phenyl]carbonyl}-piperazin-1-yl)methyl]androstan-17-one]					62	47	31	86	
CC1CN(C(=O)c2ccc(C(F)(F)F)cc2)C(C)CN1C[C@@]1(O)CC[C@@]2(C)[C@@H](CC[C@@H]3[C@@H]2CC[C@]2(C)C(=O)CC[C@@H]32)C1 (stereo partly drawn) [Compound 13d, (3α,5α)-3-{[(2,5)-2,5-dimethyl-4-{[4-(trifluoromethyl)phenyl]carbonyl}piperazin-1-yl]methyl}-3-hydroxyandrostan-17-one]		22	17	91					61
C[C@]12CC[C@](O)(CN3CCN(S(=O)(=O)c4cccc(C(F)(F)F)c4)CC3)C[C@@H]1CC[C@@H]1[C@@H]2CC[C@]2(C)C(=O)CC[C@@H]12 [Compound 14a, (3α,5α)-3-hydroxy-3-[(4-{[3-(trifluoromethyl)phenyl]sulfonyl}piperazin-1-yl)methyl]androstan-17-one]	N/A (71)^b %					3	21	82	
